From patent US8598182B2, “Insecticidal pyrimidinyl aryl hyrdrazones” (Dow AgroSciences, LLC., priority 2007, dated 2013) come the findings set out here.

Test [1] deals with Beet Armyworm (Spodoptera exigua). In words: Insecticidal diet-surface test for beet armyworm. To be noted: second-instar beet armyworm, 50 ug/cm2 on diet surface, 5 days after treatment, dead insects of 8. In kind it is in vivo. On the procedure: (§1) The compounds identified in Table 1 were prepared using the procedures illustrated in the foregoing examples, and the compounds were tested against beet armyworm and corn earworm as follows:
(§2) Insecticidal Test for Corn Earworm (Helicoverpa zea) and Beet Armyworm (Spodoptera exigua).
(§3) To prepare test solution, the test compound was formulated at 2000 ppm solution as 4 mg/2 mL of 9 acetone:1 tap water. 50 μL of the 2000 ppm (equivalent to 50 ug/cm^2 dose on diet surface area) test solution was pipetted upon the surface of 1 mL of lepidopteran diet (Southland Multi-Species Lepidopteran Diet) contained in each of eight wells per insect species (one well=1 replication). A second-instar corn earworm and beet armyworm was placed upon the treated diet in each well once the solvent had air-dried. Trays containing the treated diet and larvae were covered and then held in a growth chamber at 25° C., 50-55% RH, and 16 hr light:8 hr dark for 5 days. Observation were conducted 5 days after treatment and infestation. The number of dead insects of 8 per species per treatment was then determined and the results are given in Table 1 as percent control at a dose of […].
(§4) Keys to the table: Mass spectral data were obtained using liquid chromatography mass spectroscopy (LC-MS). The masses are detected using electrospray ionization (ESI) and reported as Mol Ion (M+H, M−H); AVG LAPHEG 50 refers to activity against beet army worm (Spodoptera exigua) as defined above; AVG HELIZE 50 refers to activity against corn ear worm (Helicoverpa zea) as described above.

The test system of test [2] is Corn Earworm (Helicoverpa zea). In words: Insecticidal diet-surface test for corn earworm. In kind it is in vivo. As to conditions: second-instar corn earworm, 50 ug/cm2 on diet surface, 5 days after treatment, dead insects of 8. How it is done: as §1, §2, §3, §4

As for `Fc1ccc(Nc2nc(N/N=C/c3ccc(OC(F)(F)F)cc3)nc(Cl)c2Cl)cc1C(F)(F)F` [Compound 41], in test [1], the “LAPHEG 50 (ug/cm2), percent control” value is 0%. In addition, the “HELIZE 50 (ug/cm2), percent control” value in test [2] worked out at 75%.
Turning to `Fc1ccc(Nc2nc(N/N=C/c3ccc(OC(F)(F)C(F)F)cc3)nc(Cl)c2Cl)cc1C(F)(F)F` [Compound 42], in test [1], the “LAPHEG 50 (ug/cm2), percent control” value is 38%. The “HELIZE 50 (ug/cm2), percent control” value in test [2] worked out at 38%.
Consider `Clc1cccc(Nc2cc(Cl)nc(N/N=C/c3ccc(N4CCCCC4)cc3)n2)c1` [Compound 43], for which the “LAPHEG 50 (ug/cm2), percent control” value in test [1] came out at 0%. Moreover, the “HELIZE 50 (ug/cm2), percent control” value in test [2] is 63%.
Regarding `Clc1cccc(Nc2cc(Cl)nc(N/N=C/c3ccc(N4CCCC4)cc3)n2)c1` [Compound 44], the “LAPHEG 50 (ug/cm2), percent control” value in test [1] came out at 0%. In addition, the “HELIZE 50 (ug/cm2), percent control” value in test [2] is reported as 50%.
As to `FC(F)C(F)(F)Oc1cccc(/C=N/Nc2nc(Cl)cc(Nc3ccc(Cl)cc3)n2)c1` [Compound 45], in test [1], the “LAPHEG 50 (ug/cm2), percent control” value was 63%. Moreover, in test [2], the “HELIZE 50 (ug/cm2), percent control” value is on record as 63%.
Consider `FC(F)(F)c1ccc(/C=N/Nc2nc(Cl)cc(Nc3ccc(Cl)cc3)n2)cc1` [Compound 46], for which, in test [1], the “LAPHEG 50 (ug/cm2), percent control” value turned out to be 100%. Further, in test [2], the “HELIZE 50 (ug/cm2), percent control” value came to 100%.
As for `FC(F)C(F)(F)Oc1cccc(Nc2cc(Cl)nc(N/N=C/c3ccc(OC(F)(F)F)cc3)n2)c1` [Compound 47], the “LAPHEG 50 (ug/cm2), percent control” value in test [1] is given as 100%. Also, the “HELIZE 50 (ug/cm2), percent control” value in test [2] is recorded as 100%.
`Fc1ccc(/C=N/Nc2nc(Cl)cc(Nc3cccc(OC(F)(F)C(F)F)c3)n2)cc1C(F)(F)F` [Compound 48]: the “LAPHEG 50 (ug/cm2), percent control” value in test [1] amounted to 25%. In addition, in test [2], the “HELIZE 50 (ug/cm2), percent control” value is 88%.
For `OC(c1cccc(Nc2cc(Cl)nc(N/N=C/c3ccc(OC(F)(F)F)cc3)n2)c1)C(F)(F)F` (stereo not drawn) [Compound 49] the same measures were 88% and 50%.
Take `OC(c1cccc(Nc2cc(Cl)nc(N/N=C/c3ccc(OC(F)(F)C(F)F)cc3)n2)c1)C(F)(F)F` (stereo not drawn) [Compound 50]: in test [1], the “LAPHEG 50 (ug/cm2), percent control” value came to 63%. Also, in test [2], the “HELIZE 50 (ug/cm2), percent control” value was 0%.
The corresponding values for `Fc1ccc(/C=N/Nc2nc(Cl)cc(Nc3cccc(Cl)c3)n2)cc1C(F)(F)F` [Compound 51] are 75% and 50%.
Turning to `Fc1ccc(/C=N/Nc2nc(Cl)cc(Nc3cccc(Br)c3)n2)cc1C(F)(F)F` [Compound 52], the “LAPHEG 50 (ug/cm2), percent control” value in test [1] is 38%. In addition, in test [2], the “HELIZE 50 (ug/cm2), percent control” value is given as 75%.
The corresponding values for `CC(C)(C)C(=O)OC(c1cccc(Nc2cc(Cl)nc(N/N=C/c3ccc(OC(F)(F)F)cc3)n2)c1)C(F)(F)F` (stereo not drawn) [Compound 53] are 38% and 0%.
For `FC(F)(F)Oc1ccc(/C=N/Nc2nc(Nc3cccc(C(F)(F)F)c3)cc(C(F)(F)F)n2)cc1` [Compound 54] the same measures were 100% and 100%.
For `FC(F)(F)c1cccc(Nc2cc(C(F)(F)F)nc(N/N=C/c3cccc(Br)c3)n2)c1` [Compound 55] the same measures were 75% and 88%.
Take `Fc1ccc(Nc2cc(C(F)(F)F)nc(N/N=C/c3ccc(OC(F)(F)F)cc3)n2)cc1C(F)(F)F` [Compound 56]: the “LAPHEG 50 (ug/cm2), percent control” value in test [1] is reported as 100%. Besides, in test [2], the “HELIZE 50 (ug/cm2), percent control” value came out at 100%.
`Fc1ccc(Nc2cc(C(F)(F)F)nc(N/N=C/c3cccc(Br)c3)n2)cc1C(F)(F)F` [Compound 57]: the “LAPHEG 50 (ug/cm2), percent control” value in test [1] is given as 100%. Also, in test [2], the “HELIZE 50 (ug/cm2), percent control” value stood at 100%.
In the case of `CN(/N=C/c1ccc(OC(F)(F)C(F)F)cc1)c1nc(Cl)cc(Nc2ccc(F)c(C(F)(F)F)c2)n1` [Compound 58], the “LAPHEG 50 (ug/cm2), percent control” value in test [1] turned out to be 100%. The “HELIZE 50 (ug/cm2), percent control” value in test [2] was determined as 100%.
Take `Fc1ccc(Nc2cc(Cl)nc(N/N=C/c3ccc(OC(F)(F)C(F)F)cc3)n2)cc1C(F)(F)F` [Compound 59]: the “LAPHEG 50 (ug/cm2), percent control” value in test [1] is recorded as 100%. In test [2], the “HELIZE 50 (ug/cm2), percent control” value is listed as 100%.
For the compound `FC(F)(F)Oc1ccc(/C=N/Nc2nc(Nc3ccc(OC(F)(F)F)cc3)cc(C(F)(F)F)n2)cc1` [Compound 60], the “LAPHEG 50 (ug/cm2), percent control” value in test [1] is reported as 100%. Moreover, the “HELIZE 50 (ug/cm2), percent control” value in test [2] amounted to 100%.
For `CN(/N=C/c1ccc(OC(F)(F)F)cc1)c1nc(Nc2ccc(OC(F)(F)F)cc2)cc(C(F)(F)F)n1` [Compound 61], the “LAPHEG 50 (ug/cm2), percent control” value in test [1] came out at 88%. Besides, the “HELIZE 50 (ug/cm2), percent control” value in test [2] is on record as 88%.
As for `Fc1ccc(Nc2cc(N3CCOCC3)nc(N/N=C/c3ccc(OC(F)(F)F)cc3)n2)cc1C(F)(F)F` [Compound 62], the “LAPHEG 50 (ug/cm2), percent control” value in test [1] worked out at 100%. The “HELIZE 50 (ug/cm2), percent control” value in test [2] was determined as 100%.
Turning to `Fc1ccc(Nc2cc(OCC(F)(F)F)nc(N/N=C/c3ccc(OC(F)(F)F)cc3)n2)cc1C(F)(F)F` [Compound 63], the “LAPHEG 50 (ug/cm2), percent control” value in test [1] came to 100%. Also, the “HELIZE 50 (ug/cm2), percent control” value in test [2] is given as 100%.
As to `COCCNc1cc(Nc2ccc(F)c(C(F)(F)F)c2)nc(N/N=C/c2ccc(OC(F)(F)F)cc2)n1` [Compound 64], the “LAPHEG 50 (ug/cm2), percent control” value in test [1] stood at 100%. Further, in test [2], the “HELIZE 50 (ug/cm2), percent control” value is on record as 100%.
For the compound `CCNCCNc1cc(Nc2ccc(F)c(C(F)(F)F)c2)nc(N/N=C/c2ccc(OC(F)(F)F)cc2)n1` [Compound 65], in test [1], the “LAPHEG 50 (ug/cm2), percent control” value stood at 100%. Besides, the “HELIZE 50 (ug/cm2), percent control” value in test [2] is 100%.
For the compound `Fc1ccc(Nc2cc(Cl)nc(N/N=C/c3ccc(Br)nc3)n2)cc1C(F)(F)F` [Compound 66], the “LAPHEG 50 (ug/cm2), percent control” value in test [1] is 100%. Moreover, the “HELIZE 50 (ug/cm2), percent control” value in test [2] amounted to 75%.
The corresponding values for `CCOc1ccc(/C=N/Nc2nc(Cl)cc(Nc3ccc(F)c(C(F)(F)F)c3)n2)cn1` [Compound 67] are 100% and 100%.
Take `Fc1ccc(Nc2cc(Cl)nc(N/N=C/c3ccc(C(F)(F)F)nc3)n2)cc1C(F)(F)F` [Compound 68]: the “LAPHEG 50 (ug/cm2), percent control” value in test [1] is on record as 100%. The “HELIZE 50 (ug/cm2), percent control” value in test [2] turned out to be 100%.
As to `FC(F)C(F)(F)Oc1cccc(Nc2cc(Cl)nc(N/N=C/c3ccc(C(F)(F)F)nc3)n2)c1` [Compound 69], in test [1], the “LAPHEG 50 (ug/cm2), percent control” value is 75%. In addition, the “HELIZE 50 (ug/cm2), percent control” value in test [2] amounted to 0%.
The corresponding values for `Fc1ccc(Nc2cc(Cl)nc(N/N=C/c3ccc(OCC(F)(F)F)nc3)n2)cc1C(F)(F)F` [Compound 70] are 100% and 100%.
For `FC(F)(F)COc1ccc(/C=N/Nc2nc(Cl)cc(Nc3cccc(Cl)c3)n2)cn1` [Compound 71] the same measures were 100% and 100%.
The corresponding values for `Fc1ccc(Nc2cc(C(F)(F)F)nc(N/N=C/c3ccc(C(F)(F)F)nc3)n2)cc1C(F)(F)F` [Compound 72] are 100% and 100%.
Turning to `FC(F)(F)Oc1ccc(/C=N/Nc2ccnc(Nc3ccc(OC(F)(F)F)cc3)n2)cc1` [Compound 73], in test [1], the “LAPHEG 50 (ug/cm2), percent control” value turned out to be 100%. The “HELIZE 50 (ug/cm2), percent control” value in test [2] came to 100%.
`FC(F)(F)Oc1ccc(Nc2nccc(N/N=C/c3ccc(C(F)(F)F)cc3)n2)cc1` [Compound 74]: the “LAPHEG 50 (ug/cm2), percent control” value in test [1] was 100%. Also, in test [2], the “HELIZE 50 (ug/cm2), percent control” value is reported as 100%.
On to `Fc1ccc(Nc2nc(Cl)cc(N/N=C/c3ccc(OC(F)(F)F)cc3)n2)cc1C(F)(F)F` [Compound 75], for which, in test [1], the “LAPHEG 50 (ug/cm2), percent control” value is 100%. Further, the “HELIZE 50 (ug/cm2), percent control” value in test [2] was found to be 100%.
Turning to `Fc1ccc(Nc2nc(Cl)cc(N/N=C/c3ccc(OC(F)(F)C(F)F)cc3)n2)cc1C(F)(F)F` [Compound 76], in test [1], the “LAPHEG 50 (ug/cm2), percent control” value was 38%. For the same compound, the “HELIZE 50 (ug/cm2), percent control” value in test [2] turned out to be 25%.
For `Fc1ccc(Nc2nccc(N/N=C/c3ccc(OC(F)(F)C(F)F)cc3)n2)cc1C(F)(F)F` [Compound 77] the same measures were 100% and 100%.
For the compound `Fc1ccc(Nc2ncc(F)c(NN=Cc3ccc(OC(F)(F)F)cc3)n2)cc1C(F)(F)F` [Compound 78], the “LAPHEG 50 (ug/cm2), percent control” value in test [1] is 100%. The “HELIZE 50 (ug/cm2), percent control” value in test [2] was determined as 100%.
In the case of `Fc1cnc(Nc2cccc(C(F)(F)F)c2)nc1NN=Cc1ccc(OC(F)(F)F)cc1` [Compound 79], the “LAPHEG 50 (ug/cm2), percent control” value in test [1] stood at 100%. Also, the “HELIZE 50 (ug/cm2), percent control” value in test [2] is on record as 100%.
As to `Fc1ccc(Nc2ccnc(N/N=C/c3ccc(OC(F)(F)F)cc3)n2)cc1C(F)(F)F` [Compound 80], the “LAPHEG 50 (ug/cm2), percent control” value in test [1] is given as 100%. Besides, the “HELIZE 50 (ug/cm2), percent control” value in test [2] was determined as 100%.
As to `Fc1ccc(Nc2cc(N/N=C/c3ccc(OC(F)(F)C(F)F)cc3)nc(NCc3ccc(Cl)nc3)n2)cc1C(F)(F)F` [Compound 81], the “LAPHEG 50 (ug/cm2), percent control” value in test [1] is listed as 0%. In addition, the “HELIZE 50 (ug/cm2), percent control” value in test [2] is 100%.
For the compound `Fc1ccc(Nc2nc(Cl)nc(N/N=C/c3ccc(OC(F)(F)F)nc3)c2Cl)cc1C(F)(F)F` [Compound 82], the “LAPHEG 50 (ug/cm2), percent control” value in test [1] came to 100%. Besides, the “HELIZE 50 (ug/cm2), percent control” value in test [2] is on record as 100%.
